Assay results: patent US5958894A, “Amphiphilic biguanide derivatives” (Megabios Corporation, priority 1997, dated 1999)
Values belong to the molecule of their own block, whether it stands above or below them.

Experiments:
[1] = strongly basic head group; cited from earlier work
in vivo transfection = assay: Comparison of in vivo transfection activity of biguanide and guanidine derivatives with identical hydrophobic chains; conditions: data not shown
Excerpt: The biguanide derivatives of the present invention differ from the guanidine derivatives described in WO 95/14381 in the positively charged headgroups. The positive charge of the biguanide derivatives is delocalized over five nitrogen atoms, whereas the positive charge of the guanidine derivatives is delocalized over three nitrogen atoms. Thus, compounds of the present invention have been compared to the guanidine derivatives having the identical hydrophobic chains (not shown).

[2] = system: CAT reporter gene expression in lung; assay: Gene transfer efficiency by intravenous delivery: CAT reporter gene (plasmid p4119) activity in mouse organs; format: in vivo, ICR female mice; conditions: with either cholesterol or DLPE as neutral lipids
Procedure: (§1) DOBG, DMBG and DPBG were used to prepare liposomes with either cholesterol or DLPE (1,2-dilauroyl-sn-glycerol-3-phosphoethanolamine) as neutral lipids. The lipids were dissolved in a mixture of chloroform and methanol (1:1). Lipid films of cationic and neutral lipid at a 1:1 molar ratio were formed with a rotary evaporator. The films were hydrated with either 5% dextrose in water (D5W) or 5 mM HEPES buffer (pH 7.4) at various temperatures. […] DMBG:DLPE was hydrated in D5W at 50° C. and extruded through a 0.05 μm membrane. […] DOBG:cholesterol and DOBG:DLPE were hydrated in D5W at room temperature and extruded through a 0.05 μm membrane.

[3] = Liposome hydration and extrusion; format: physicochemical; conditions: at 50° C.; with either DLPE or cholesterol
Procedure: as §1

Structure (SMILES): N=C(N)NC(=N)N [biguanide]
pKa [1]: 11.5

Structure (SMILES): CCCCCCCC/C=C\CCCCCCCC(=O)OCCN(CCOC(=O)CCCCCCC/C=C\CCCCCCCC)C(=N)NC(=N)N [DOBG, N,N-di(2-(oleoyloxy)ethyl) biguanide]
in vivo transfection activity, dioleoyl derivatives of biguanide versus guanidine (in vivo transfection): higher in vivo transfection activity than the dioleolyl derivatives of guanidine
transfection activity in the lung compared with DOTIM:cholesterol [2]: comparable to or higher than DOTIM:cholesterol

Hydration of lipid film [3]: could not be completely hydrated
Structure (SMILES): CCCCCCCCCCCCCCCC(=O)OCCN(CCOC(=O)CCCCCCCCCCCCCCC)C(=N)NC(=N)N [DPBG, N,N-di(2-(palmitoyloxy)ethyl)biguanide]
